Values quoted from earlier work in patent US8679304B2, “Apparatus for creating bioactive solution” (priority 2008, dated 2014).

Test system: Cryptosporidium oocysts
Details: pH 7

For `[O][Cl+][O-]` [chlorine dioxide], the “approximate CT values for 99% inactivation” value is listed as ~78.
